pIC50: −log10 of the molar value. Some results are limits rather than exact numbers.

The target of the test is T1, PD-1/PD-L1 interaction (Homo sapiens, UniProt Q9NZQ7).
T1 construct: Tag1 or Tag2 (undisclosed kit tag); purchased CisBio 63ADK000CPAPEG
T1 sequence (Q9NZQ7 19-238 limits assumed): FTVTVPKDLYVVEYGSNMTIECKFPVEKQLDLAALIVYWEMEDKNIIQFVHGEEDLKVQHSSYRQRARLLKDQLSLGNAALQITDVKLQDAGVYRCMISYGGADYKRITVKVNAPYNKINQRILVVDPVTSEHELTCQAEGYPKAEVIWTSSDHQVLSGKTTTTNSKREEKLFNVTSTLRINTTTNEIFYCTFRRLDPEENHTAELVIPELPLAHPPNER
The test is described as follows: PD-1/PD-L1 Homogenous Time-Resolved Fluorescence (HTRF) binding assay. The conditions noted are these: Biochemical PD1/PD-L1 inhibition. As to the method: PD-L1 Enzyme Assay: Homogenous Time-Resolved Fluorescence (HTRF) Binding Assay
All binding studies were performed using PD-1/PD-L1 Binding Assay Kit from CisBio (Catalog #63ADK000CPAPEG), according to the manufacturer's protocol. The interaction between Tag1-PD-1 and […] was detected by anti-Tag1-Eu^3+ (HTRF donor) and anti-Tag2-XL665 (HTRF acceptor). When the donor and acceptor antibodies were brought to close proximity due to PD-1 and PD-L1 binding, excitation of the donor antibody triggered fluorescent resonance energy transfer (FRET) towards the acceptor antibody, which in turn emitted specifically at 665 nm. This specific signal is positively proportional to PD-1/PD-L1 interaction. The compounds blocking PD-1/PD-L1 interaction will cause a reduction in HTRF signal. The necessary reagents were mixed in the following order: 2 μl compounds (or diluents buffer), 4 μl PD-L1 protein, 4 μl PD-1 protein. After an incubation of 15 minutes, 5 μl of anti-Tag1-Eu^3+ and 5 μl of anti-Tag2-XL665 were added. The plate was sealed and incubated at RT for 1 h. The fluorescence emission was read at two different wavelengths (665 nm and 620 nm) on a BMG PheraStar® multiplate reader. Results were calculated from the 665 nm and 620 nm fluorescence signal and expressed in HTRF ratio=(665 nm/620 nm)×[…].
Background: TR-FRET usually uses a lanthanide donor and a delayed reading to cut background.
Consider `COc1nc(OCc2cccc(-c3ccccc3)c2C)ncc1CN1CCC[C@@H]2C[C@@]21C(=O)O` (racemic) [Compound 48], for which the pIC50 (usually the negative decadic logarithm of the IC50, by convention in mol/L) was less than 6.30.

`COc1nc(OCc2cccc(-c3ccccc3)c2C)nc(OC)c1CN1CCCC2C[C@]21C(=O)O` (single isomer, unassigned) [Compound 4] showed a pIC50 of more than 7.00.

In turn, `COc1nc(OCc2cccc(-c3ccccc3)c2C)nc(OC)c1CN1CCC[C@@H]2C[C@@]21C(=O)O` (single isomer, unassigned) [Compound 5] had a pIC50 of 6.30 to 7.00.

Regarding `CCOc1nc(OCc2cccc(-c3ccccc3)c2C)ncc1CN1C[C@H](O)CC1C(=O)O` (stereo in doubt) [Compound 30, (2R,4R)-1-((4-ethoxy-2-((2-methyl-[1,1′-biphenyl]-3-yl)methoxy)pyrimidin-5-yl)methyl)-4-hydroxypyrrolidine-2-carboxylic acid], the negative logarithm of the IC50 (pIC50) was 6.30 to 7.00.

On to `COc1nc(OCc2cccc(-c3ccc(F)cc3)c2C)ncc1CNCCNC(C)=O` [Compound 1, N-(2-(((2-((4′-fluoro-2-methyl-[1,1′-biphenyl]-3-yl)methoxy)-4-methoxypyrimidin-5-yl)methyl)amino)ethyl)acetamide], for which the pIC50 was less than 6.30.

The molecule `CCOc1nc(OCc2cccc(-c3ccccc3)c2C)ncc1CN(C)CC(=O)O` [Compound 2, N-((4-ethoxy-2-((2-methyl-[1,1′-biphenyl]-3-yl)methoxy)pyrimidin-5-yl)methyl)-N-methyl glycine] gave a pIC50 of less than 6.30.

`COc1nc(OCc2cccc(-c3ccccc3)c2C)nc(OC)c1CNCCNC(C)=O` [Compound 3, N-(2-(((4,6-dimethoxy-2-((2-methyl-[1,1′-biphenyl]-3-yl)methoxy)pyrimidin-5-yl)methyl)amino)ethyl)acetamide] gave a pIC50 of more than 7.00.

Molecule `CCOc1nc(OCc2cccc(-c3ccccc3)c2C)nc(OCC)c1CNCCNC(C)=O` [Compound 6, N-(2-(((4,6-diethoxy-2-((2-methyl-[1,1′-biphenyl]-3-yl)methoxy)pyrimidin-5-yl)methyl)amino)ethyl)acetamide] showed a pIC50 of 6.30 to 7.00.

In turn, `COc1nc(OCc2cccc(-c3ccccc3)c2C)ncc1CN1CCCC[C@H]1C(=O)O` [Compound 7, (S)-1-((4-methoxy-2-((2-methyl-[1,1′-biphenyl]-3-yl)methoxy)pyrimidin-5-yl)methyl)piperidine-2-carboxylic acid] showed a pIC50 of more than 7.00.

The molecule `Cc1c(COc2ncc(CN3CCCC[C@H]3C(=O)O)c(OCc3ccc(F)c(C#N)c3)n2)cccc1-c1ccccc1` [Compound 8, (S)-1-((4-((3-cyano-4-fluorobenzyl)oxy)-2-((2-methyl-[1,1′-biphenyl]-3-yl)methoxy)pyrimidin-5-yl)methyl)piperidine-2-carboxylic acid] gave a pIC50 of less than 6.30.

`Cc1c(COc2ncc(CN3CCCC[C@H]3C(=O)O)c(OCC(F)(F)F)n2)cccc1-c1ccccc1` [Compound 9, (S)-1-((2-((2-methyl-[1,1′-biphenyl]-3-yl)methoxy)-4-(2,2,2-trifluoroethoxy)pyrimidin-5-yl)methyl)piperidine-2-carboxylic acid] showed a pIC50 of less than 6.30.

Take `Cc1c(COc2ncc(CN3CCCC[C@H]3C(=O)O)c(OCCCCO)n2)cccc1-c1ccccc1` [Compound 10, (S)-1-((4-(4-hydroxybutoxy)-2-((2-methyl-[1,1′-biphenyl]-3-yl)methoxy)pyrimidin-5-yl)methyl)piperidine-2-carboxylic acid]: the negative logarithm of the IC50 (pIC50) was 6.30 to 7.00.

`COc1nc(OCc2cccc(-c3ccc4c(c3)OCCO4)c2C)nc(OC)c1CN1C[C@H](O)C[C@H]1C(=O)O` [Compound 11, (2S,4R)-1-((2-((3-(2,3-dihydrobenzo[b][1,4]dioxin-6-yl)-2-methylbenzyl)oxy)-4,6-dimethoxypyrimidin-5-yl)methyl)-4-hydroxypyrrolidine-2-carboxylic acid] showed a pIC50 of more than 7.00.

As for `Cc1c(COc2ncc(CN3CCCC[C@H]3C(=O)O)c(OCc3cncc(C#N)c3)n2)cccc1-c1ccccc1` [Compound 12, (S)-1-((4-((5-cyanopyridin-3-yl)methoxy)-2-((2-methyl-[1,1′-biphenyl]-3-yl)methoxy)pyrimidin-5-yl)methyl)piperidine-2-carboxylic acid], the negative-log IC50 (pIC50) was less than 6.30.

Turning to `COc1nc(OCc2cccc(-c3cccc(OCCCN4CCC(F)(F)C4)c3C)c2C)ncc1CN1CCCC[C@H]1C(=O)O` [Compound 13, (S)-1-((2-((3′-(3-(3,3-difluoropyrrolidin-1-yl)propoxy)-2,2′-dimethyl-[1,1′-biphenyl]-3-yl)methoxy)-4-methoxypyrimidin-5-yl)methyl)piperidine-2-carboxylic acid], the negative logarithm of the IC50 (pIC50) is 6.30 to 7.00.

Regarding `COc1nc(OCc2cccc(-c3ccccc3)c2C)ncc1CNCCNC(C)=O` [Compound 14, N-(2-(((4-methoxy-2-((2-methyl-[1,1′-biphenyl]-3-yl)methoxy)pyrimidin-5-yl)methyl)amino)ethyl)acetamide], the pIC50 is 6.30 to 7.00.

As to `COc1nc(OCc2cccc(-c3ccccc3)c2C)ncc1CN1CCCC[C@@H]1C(=O)O` [Compound 15, (R)-1-((4-methoxy-2-((2-methyl-[1,1′-biphenyl]-3-yl)methoxy)pyrimidin-5-yl)methyl)piperidine-2-carboxylic acid], the pIC50 was 6.30 to 7.00.

With `COc1nc(OCc2cccc(-c3ccc(F)cc3)c2C)ncc1CN1CCCC[C@H]1C(=O)O` [Compound 16, (S)-1-((2-((4′-fluoro-2-methyl-[1,1′-biphenyl]-3-yl)methoxy)-4-methoxypyrimidin-5-yl)methyl)piperidine-2-carboxylic acid], the pIC50 was less than 6.30.

In turn, `COc1nc(OCc2cccc(-c3cccc(F)c3)c2C)ncc1CN1CCCC[C@H]1C(=O)O` [Compound 17, (S)-1-((2-((3′-fluoro-2-methyl-[1,1′-biphenyl]-3-yl)methoxy)-4-methoxypyrimidin-5-yl)methyl)piperidine-2-carboxylic acid] gave a pIC50 of 6.30 to 7.00.

`COc1nc(OCc2cccc(-c3cccc(F)c3)c2C)ncc1CNCCNC(C)=O` [Compound 18, N-(2-(((2-((3′-fluoro-2-methyl-[1,1′-biphenyl]-3-yl)methoxy)-4-methoxypyrimidin-5-yl)methyl)amino)ethyl)acetamide] showed a negative-log IC50 (pIC50) of 6.30 to 7.00.

Molecule `COc1nc(OCc2cccc(-c3ccccc3F)c2C)ncc1CN1CCCC[C@H]1C(=O)O` [Compound 19, (S)-1-((2-((2′-fluoro-2-methyl-[1,1′-biphenyl]-3-yl)methoxy)-4-methoxypyrimidin-5-yl)methyl)piperidine-2-carboxylic acid] gave a negative logarithm of the IC50 (pIC50) of 6.30 to 7.00.

Turning to `COc1nc(OCc2cccc(-c3ccccc3F)c2C)ncc1CNCCNC(C)=O` [Compound 20, N-(2-(((2-((2′-fluoro-2-methyl-[1,1′-biphenyl]-3-yl)methoxy)-4-methoxypyrimidin-5-yl)methyl)amino)ethyl)acetamide], the pIC50 was less than 6.30.

In turn, `CCOc1nc(OCc2cccc(-c3ccccc3)c2C)ncc1CNCCNC(C)=O` [Compound 21, N-(2-(((4-ethoxy-2-((2-methyl-[1,1′-biphenyl]-3-yl)methoxy)pyrimidin-5-yl)methyl)amino)ethyl)acetamide] had a negative-log IC50 (pIC50) of less than 6.30.

In the case of `CCOc1nc(OCc2cccc(-c3ccccc3)c2C)ncc1CN1CCCC[C@H]1C(=O)O` [Compound 22, (S)-1-((4-ethoxy-2-((2-methyl-[1,1′-biphenyl]-3-yl)methoxy)pyrimidin-5-yl)methyl)piperidine-2-carboxylic acid], the pIC50 was 6.30 to 7.00.

On to `CCOc1nc(OCc2cccc(-c3ccccc3)c2C)ncc1CNC1(C(=O)O)CC1` [Compound 23, 1-(((4-ethoxy-2-((2-methyl-[1,1′-biphenyl]-3-yl)methoxy)pyrimidin-5-yl)methyl)amino)cyclopropane-1-carboxylic acid], for which the pIC50 is 6.30 to 7.00.

Turning to `CCOc1nc(OCc2cccc(-c3ccccc3)c2C)ncc1CNCCC(=O)O` [Compound 24], the negative-log IC50 (pIC50) was less than 6.30.

In turn, `CCOc1nc(OCc2cccc(-c3ccccc3)c2C)ncc1CNC(CO)(CO)CO` [Compound 25, 2-(((4-ethoxy-2-((2-methyl-[1,1′-biphenyl]-3-yl)methoxy)pyrimidin-5-yl)methyl)amino)-2-(hydroxymethyl)propane-1,3-diol] showed a pIC50 of more than 7.00.

`CCOc1nc(OCc2cccc(-c3ccccc3)c2C)ncc1CN[C@@H](C)CC(=O)O` [Compound 27, (S)-3-(((4-ethoxy-2-((2-methyl-[1,1′-biphenyl]-3-yl)methoxy)pyrimidin-5-yl)methyl)amino)butanoic acid] showed a pIC50 of less than 6.30.

`CCOc1nc(OCc2cccc(-c3ccccc3)c2C)ncc1CN[C@H](C)C(=O)O` [Compound 28, ((4-ethoxy-2-((2-methyl-[1,1′-biphenyl]-3-yl)methoxy)pyrimidin-5-yl)methyl)-D-alanine]: the pIC50 was 6.30 to 7.00.

`CCOc1nc(OCc2cccc(-c3ccccc3)c2C)ncc1CNC(CC(N)=O)C(=O)O` (stereo not shown) [Compound 29, ((4-ethoxy-2-((2-methyl-[1,1′-biphenyl]-3-yl)methoxy)pyrimidin-5-yl)methyl)asparagine] had a pIC50 of 6.30 to 7.00.

Regarding `CCOc1nc(OCc2cccc(-c3ccccc3)c2C)ncc1CN1CCC1C(=O)O` (stereo not shown) [Compound 31, 1-((4-ethoxy-2-((2-methyl-[1,1′-biphenyl]-3-yl)methoxy)pyrimidin-5-yl)methyl)azetidine-2-carboxylic acid], the pIC50 was 6.30 to 7.00.

Source of the values: patent US11629135B2 (JUBILANT PRODEL LLC, priority 2017, dated 2023).
